Measured values taken from article PMC5024129, “Adipokinetic hormones and their G protein-coupled receptors emerged in Lophotrochozoa” (Scientific Reports, 2016).
Square brackets hold non-standard residues; d marks the D form. Ends that are not written are not given here. Peptide text beside a SMILES is read from it. pGlu = O=C1CC[C@@H](C(=O)O)N1

Legend:
C. gigas AKHR1-D = test: Bioluminescence assay in CHO/G-16 cells expressing C. gigas AKHR1 splice variant D; type: cell-based, Crassostrea gigas
From the text: (§1) We stably expressed all four cloned splice variants from C. gigas AKHR1 (Fig. 2) in Chinese Hamster Ovary (CHO) cells. These cells were also stably transfected with the promiscuous G protein, G-16, and transiently transfected with apoaequorin. An activation of the receptor by its ligand in these pretreated CHO cells would result in an IP3/Ca^2+ second messenger cascade, which could be measured as a bioluminescence signal.
(§2) CHO cells stably expressing the human G-protein 16 (CHO/G16) were maintained in DMEM/F-12 + GlutaMAX^TM (Life Technologies) medium with 200 μg/ml hygromycin B (Invitrogen), 5% fetal calf serum (FCS) (Life Technologies), 1% (v/v) glutaMAX (Life Technologies), 100 U/ml penicillin(Life Technologies), and 100 μg/ml streptomycin (Life Technologies). To express the AKH receptor, 5 × 10^4 CHO/G16 cells were transfected with 3 μg pIRES vector containing the AKH receptor insert using JetPEI® transfection reagent (Polyplus), while 3 μg empty pIRES vector was used as a control. All tested peptides were from Genemed Synthesis, Inc. and initially dissolved in demethylformamide (DMF) followed by dilution in PBS.

C. gigas AKHR1-C = test: Bioluminescence assay in CHO/G-16 cells expressing C. gigas AKHR1 splice variant C; type: cell-based, Crassostrea gigas
From the text: as §1, §2

C. gigas AKHR2 = test: Bioluminescence assay in CHO/G-16 cells expressing C. gigas AKHR2; type: cell-based, Crassostrea gigas
Experimental: as §2, with “This receptor, therefore, remains an orphan. CHO cells” for “CHO cells”, “in PBS. The purities of the peptides and peptide contents were determined by HPCL and mass spectrometry as supplied by Genemed Synthesis. The bioluminescence assay was performed as described earlier[9][30] using a Victor2 1420 Multilabel Counter (Perkin Elmer).” for “in PBS.”

C. gigas AKHR1-A = C. gigas AKHR1-A (Magallana gigas, UniProt B1VCT5); test: Bioluminescence assay in CHO/G-16 cells stably expressing C. gigas AKHR1-A (apoaequorin, IP3/Ca2+ cascade); type: cell-based, Crassostrea gigas; conditions: 10^−6 M peptide, CHO/G-16/AKHR1-A cells, Fig. 5A, n = 3
Chain of C. gigas AKHR1-A (B1VCT5 entry or part of it): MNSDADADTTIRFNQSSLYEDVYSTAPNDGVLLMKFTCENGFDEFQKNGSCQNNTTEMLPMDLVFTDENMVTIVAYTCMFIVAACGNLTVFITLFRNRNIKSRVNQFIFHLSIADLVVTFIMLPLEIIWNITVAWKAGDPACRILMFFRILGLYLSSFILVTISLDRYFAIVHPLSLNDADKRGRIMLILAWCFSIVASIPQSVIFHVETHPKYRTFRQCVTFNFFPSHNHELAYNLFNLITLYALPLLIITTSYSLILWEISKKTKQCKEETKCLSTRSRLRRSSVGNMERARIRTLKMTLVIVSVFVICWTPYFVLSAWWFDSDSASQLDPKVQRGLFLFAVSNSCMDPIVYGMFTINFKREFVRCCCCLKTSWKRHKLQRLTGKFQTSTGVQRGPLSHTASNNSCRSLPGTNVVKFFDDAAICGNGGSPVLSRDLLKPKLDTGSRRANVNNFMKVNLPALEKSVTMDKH
From the text: as §1, §2

Aplysia californica = conditions: injection into the slug; cited from earlier work
From the text: Johnson et al.[34] have recently shown that an AKH is present in the sea slug Aplysia californica. […] These findings are difficult to reconcile with our above considerations, but our own considerations are, of course, only hypothetical.

Molecule	Activation of AKHR1 splice variant D (C. gigas AKHR1-D)	Activation of AKHR1 splice variant C (C. gigas AKHR1-C)	Activation of AKHR2 (C. gigas AKHR2)	Bioluminescence response (activation) of AKHR1-A (C. gigas AKHR1-A)	Effect on defecation (Aplysia californica)	Effect on feeding (Aplysia californica)	Influence on hemolymph glucose concentrations (Aplysia californica)
CC(C)[C@H](NC(=O)[C@@H]1CCC(=O)N1)C(=O)N[C@@H](CO)C(=O)N[C@@H](Cc1ccccc1)C(=O)N[C@@H](CO)C(=O)N[C@H](C(=O)N[C@@H](CC(N)=O)C(=O)N[C@@H](Cc1c[nH]c2ccccc12)C(=O)NCC(=O)N[C@@H](CO)C(N)=O)[C@@H](C)O [C. gigas AKH] ([pGlu]VSFSTNWGS-NH2)	could not be activated	could not be activated	could not be activated	can be activated	–	–	–
Dm-CCAP: D. melanogaster crustacean cardioactive peptide (PFCNAFTGC; ends and bridges not checked; cysteine pairing not given here; UniProt Q9VCW0 52-60, looked up)	–	–	–	not active	–	–	–
pQIHFSPDWGTamide [Aplysia californica AKH, molluscan true AKH of the sea slug]	–	–	–	–	induce defecation	reduce feeding	no influence
